Paper PMC12926044, “Nootropic benzothiazoles promote dendritic spine formation by targeting fascin-1” (The Journal of Biological Chemistry, 2025)
Like-named read-outs stand apart in the source and are kept apart here.

Target: T1, fascin-1 (Homo sapiens, UniProt Q16658)
T1 construct: gene FSCN1; recombinant, E. coli BL21(DE3), pGEX-5X-2 GST fusion, GST cut off with thrombin; monomer
Assay: isothermal titration calorimetry
Assay type: binding

Structure (SMILES) | Kd (read-out: Kd) | Kd (50 mM Hepes pH 7.5, 150 mM NaCl, 25 °C, proposed site 2)
Cc1ccc2nc(-c3ccc(NCCOCCOCCOCCOCCOCCO)cc3)sc2c1 [BTA-EG6] | ~5 µM | 
O=C(Nc1nn(Cc2ccc(C(F)(F)F)cc2)c2ccccc12)c1ccco1 [G2] |  | Kd values of G2 to WT fascin-1 and seven fascin-1 mutant proteins
